Source: US8173696B2, “Inhibitors of cysteine proteases and methods of use thereof” (Baylor University, priority 2007, dated 2012)
Where two headings read alike, the source gives them in different places.

Columns and labels:
[1] = target: Cat B (Homo sapiens, UniProt P07858); assay: Cathepsin B inhibition in vitro; assay type: biochemical
Procedure: For in vitro cysteine protease inhibition determinations, a compound's effectiveness can be given by an IC50 value. In these assays, the enzyme to be inhibited (e.g., a cruzain or cruzipain, a rhodesain, a brucipain, a congopain, a falcipain, CPB2.8 Delta CTE, a cathepsin-L, cathepsin-B, a cathepsin-H, a cathepsin-K, a cathepsin-S) is first incubated with varying concentrations (about 20-50,000 nM) of a test compound. To this is added a short peptide substrate of the enzyme of 1 to 10 amino acids, usually a di- or tri-peptide substrate, which is labeled with either a fluorogenic or chromogenic moiety. An exemplary chromogenic moiety is p-nitro-anilide (pNA). […] Exemplary peptide substrates include Phe-Arg, Arg-Arg, Phe-Arg-X (X=Ala, Arg), and Phe-X-Ser-Arg-Gln (X=Arg, 4-aminomethyl-phenylalanine (Arm), 4-aminomethyl-N-isopropyl-phenylalanin-e (laf), 4-piperidinyl-alanine (Ppa) or 4-aminocyclohexyl-alanine (Aca)). Cleavage of the labeled substrate induces a chromogenic or fluorescent signal that is measured using spectrophotometer or a spectrofluorometer, respectively. Signals induced in the presence of varying concentrations of test compound are measured in comparison to a positive control of enzyme and substrate and a negative control of enzyme in diluent (e.g., DMSO). Spontaneous cleavage of substrate is measured in controls with substrate alone. IC50 values are determined graphically using compound inhibitor concentrations in the linear portion of a plot of inhibition versus log [I].

[2] = target: T1, Human liver cathepsin L (Homo sapiens, UniProt P07711); assay: Cathepsin L inhibition in vitro (Z-FR-AMC fluorescence); assay type: biochemical
T1 construct: from tissue; host or cells: human liver
T1 sequence (P07711 114-333): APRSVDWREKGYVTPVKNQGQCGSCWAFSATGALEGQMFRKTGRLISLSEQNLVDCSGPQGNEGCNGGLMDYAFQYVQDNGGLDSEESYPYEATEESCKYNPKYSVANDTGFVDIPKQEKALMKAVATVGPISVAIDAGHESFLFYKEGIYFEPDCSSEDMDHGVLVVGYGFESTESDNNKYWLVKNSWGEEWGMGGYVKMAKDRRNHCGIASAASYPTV
Procedure: Human liver cathepsin L (1 nM) was incubated in 50 mM sodium acetate buffer, pH 5.5 containing 1 mM EDTA, 2 mM DTT, 0.001% (v/v) brij 35 with potential inhibitors at 20 different concentrations (from 0.05 nM to 50 μM) at 25° C. for 5 minutes before 100 μL substrate (benzyloxycarbonyl-L-phenylalanyl-L-arginyl-7-amido-4-methylcoumarin, abbreviated as Z-FR-AMC, 50 μM in final assay condition) was added to the enzyme-inhibitor mixture; total volume was 200 μL. Controls were performed using enzyme alone, substrate alone, and enzyme with DMSO. […] Spectra were taken at 3-sec intervals for 3 minutes. IC50 values were determined by non-linear regression analysis using vo(inh)=VMAX/{1+10(logIC50−x)*Hillslope} and Prism software (GraphPad).

[3] = target: Cruzain (Trypanosoma cruzi, UniProt P25779); assay: biochemical; assay type: biochemical; settings: Table A; 0.1 nM cruzain, pH 5.50, 25° C., 10 μM Z-Phe-Arg-AMC
Chain of Cruzain (P25779 123-467): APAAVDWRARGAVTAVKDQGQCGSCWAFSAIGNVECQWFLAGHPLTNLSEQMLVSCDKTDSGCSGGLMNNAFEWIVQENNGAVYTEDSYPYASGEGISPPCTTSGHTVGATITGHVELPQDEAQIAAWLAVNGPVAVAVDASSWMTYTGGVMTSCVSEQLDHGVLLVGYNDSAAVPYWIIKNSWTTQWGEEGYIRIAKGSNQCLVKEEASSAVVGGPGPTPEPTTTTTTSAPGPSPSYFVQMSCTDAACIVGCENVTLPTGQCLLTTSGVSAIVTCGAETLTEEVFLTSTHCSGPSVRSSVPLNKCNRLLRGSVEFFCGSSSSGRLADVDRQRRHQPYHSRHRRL
Procedure: Cruzain (0.1 nM) in 100 mM sodium acetate buffer (pH 5.50) containing 5 mM DTT was preincubated for 5 min at 25° C. with inhibitor.

[4] = system: cathepsin L; assay: Inhibition of activated cathepsin L secreted in DU-145 cell conditioned media; assay type: cell-based; settings: compound 20 μM, replicate samples a-c
Procedure: (§1) A prostrate carcinoma derived cell line (DU-145) was maintained in free phenol red DMEM supplemented with 10% fetal bovine serum, 1% glutamine, 1% glutamax, 1% Penicillin-Streptomycin and 1 mM sodium pyruvate, at 37° C. in an atmosphere of 95% air/5% CO2. DU145 was plated at 4×10^6 cells/10 cm Petri dish for dense, super confluent density. These cultures were incubated for 3 days before collection. Twenty-four hours prior to harvesting, cells were fed with serum-free media or serum-free media containing inhibitors at a final concentration of 20 μM. On the day of harvesting, the serum-free medium was collected for assay of Cathepsin L activity secreted in the medium. The cells were rinsed in cold PBS (pH 7.2) and collected in cold PBS containing […]. The cells were lysed using a Sonicator (Misonix 3000) at medium setting with pauses at 0° C. for temperature equilibration. Then the homogenate was centrifuged at 13,000×g for 20 min and the supernatant saved. […] Fluorescence was measured in a Fluoro Max 2 (Jobin Yvon) spectrofluorometer at an excitation wavelength of 355 nm and an emission wavelength of 460 nm. The substrate is hydrolyzed by cathepsin L and to a smaller extent by cathepsin B, therefore the activity is referred to as cathepsin L+B activity. Data analysis was performed using Prism software (GraphPad version 4). Data corresponding to cathepsin L activity (after activation) in cell conditioned media in the presence of Compound 14 (20 μM) is summarized in Table 3 below. Data corresponding to cathepsin L activity (after activation) in cell conditioned media in the presence of Compound 27 (20 μM) is summarized in Table 4 below.

[5] = system: cathepsin L; assay: Inhibition of activated cathepsin L in DU-145 cell lysates; assay type: cell-based; settings: DU-145 cell lysates preincubated for 24 h with compound, following removal of media, replicate samples a-c; for activity (cathepsin L activity after activation): control 6.93E−03; for cps (cathepsin L activity after activation): control 26950
Procedure: as §1, with “cell lysates preincubated for 24 h with” for “cell conditioned media in the presence of”, “14 and following the removal of media” for “14 (20 μM)”, “Table 5” for “Table 3”, “27 and following the removal of media” for “27 (20 μM)”, “Table 6” for “Table 4”

[6] = Table A, 1 nM human liver cathepsin L, pH 5.5, 25° C., 50 μM Z-FR-AMC, read-out: Cat L IC50

| SMILES | IC50 [2, 6] [nM] | IC50 [3] [nM] | other results |
| --- | --- | --- | --- |
| CC/C(=N\NC(N)=S)c1cccc(Br)c1 [Compound 5, 3-Bromopropiophenone thiosemicarbazone] | – | – | IC50 ([1]; Table B, unit inferred, read-out: Cat B): > 50000 nM; IC50 ([2]; Table B, unit inferred, read-out: Cat L): > 10000 nM |
| CC/C(=N\NC(N)=S)c1cccc([N+](=O)[O-])c1 [Compound 6, 3-Nitropropiophenone thiosemicarbazone] | 5790 | 860 | – |
| CC/C(=N\NC(N)=S)c1cccc(O)c1 [Compound 7, 1-(3-Hydroxyphenyl)-1-propanone thiosemicarbazone] | 2570 | – | – |
| CC/C(=N\NC(N)=S)c1cccc(N)c1 [Compound 8, 3-Aminopropiophenone thiosemicarbazone] | 1640 | 3640 | – |
| NC(=S)N/N=C(\c1ccccc1)c1cccc(Br)c1 [Compound 13, Phenyl(3-bromophenyl) ketone thiosemicarbazone] | 16200 | 80 | – |
| NC(=S)N/N=C1\CCCc2c(Br)cccc21 [Compound 20, 5-Bromo-1-tetralone thiosemicarbazone] | 367 | 1200 | – |
| NC(=S)N/N=C1\CCCc2ccc(Br)cc21 [Compound 21, 7-Bromo-1-tetralone thiosemicarbazone] | 619 | 17 | – |
| NC(=S)N/N=C1\CCS(=O)(=O)c2ccc(Br)cc21 [Compound 23, 6-Bromo-1,1-dioxo-1-thiochroman-4-one thiosemicarbazone] | 1 | 210 | – |
| NC(=S)N/N=C1\CCS(=O)(=O)c2c(Br)cc(Br)cc21 [Compound 24, 6,8-Dibromo-1,1-dioxo-1-thiochroman-4-one thiosemicarbazone] | 716 | 820 | – |
| NC(=S)N/N=C1\CCOc2ccccc21 [Compound 26] | 6380 | – | – |
| NC(=S)N/N=C1\CCS(=O)(=O)c2ccccc21 [Compound 27] | 5050 | – | activity (cathepsin L activity after activation) ([4]; control 1.50E−03, listed as 27a): 0.000101 µM/s; activity (cathepsin L activity after activation) ([4]; control 1.50E−03, listed as 27b): 9.46e-05 µM/s; activity (cathepsin L activity after activation) ([4]; control 1.50E−03, listed as 27c): 9.81e-05 µM/s; cps (cathepsin L activity after activation) ([4]; control 5848, listed as 27a): 393.7 cps; cps (cathepsin L activity after activation) ([4]; control 5848, listed as 27b): 367.5 cps; cps (cathepsin L activity after activation) ([4]; control 5848, listed as 27c): 381.1 cps; activity (cathepsin L activity after activation) ([5]; listed as 27a): 0.00308 µM/s; activity (cathepsin L activity after activation) ([5]; listed as 27b): 0.00255 µM/s; activity (cathepsin L activity after activation) ([5]; listed as 27c): 0.00275 µM/s; cps (cathepsin L activity after activation) ([5]; listed as 27a): 11990 cps; cps (cathepsin L activity after activation) ([5]; listed as 27b): 9918 cps; cps (cathepsin L activity after activation) ([5]; listed as 27c): 10690 cps |
| CC(=O)C1=CCCc2ccccc21 [Compound 37, [1-(3,4-Dihydronaphthalenyl)]methyl ketone] | > 10000 | – | – |
| C=CC(=O)C1=CCCc2ccc(Br)cc21 [Compound 38] | 372 | – | – |

More lines, main results first:

| IC50 [2, 6] [nM] | IC50 [3] [nM] | SMILES | other results |
| --- | --- | --- | --- |
| > 10000 | > 5000 | NC(=S)N/N=C1\CCC(c2ccc(Br)cc2)C1 (stereo not shown) [Compound 46] | – |
| 2910 | > 7000 | NC(=S)N/N=C1\CCCC(c2ccc(Br)cc2)C1 (stereo not shown) [Compound 47] | – |
| 2450 | > 17000 | NC(=S)N/N=C1\CCc2ccccc2O1 [Compound 48] | – |
| > 10000 | – | NC(=S)N/N=C1\CCc2ccccc21 [Compound 49] | – |
| 4260 | > 17000 | NC(=S)N/N=C1\CCc2ccc(Br)cc2C1 [Compound 69, 7-Bromo-2-tetralone thiosemicarbazone] | IC50 ([1]; Table A, read-out: Cat B IC50): < 50000 nM |
| 10900 | 4480 | NC(=S)N/N=C1\CCc2c(Br)cc(Br)cc2C1 [Compound 70, 5,7-Dibromo-2-tetralone thiosemicarbazone] | IC50 ([1]; Table A, read-out: Cat B IC50): > 50000 nM |
